Experimental data taken from paper PMC11317636, “Convergent evolution in toxin detection and resistance provides evidence for conserved bacterial–fungal interactions” (Proceedings of the National Academy of Sciences of the …, 2024).

What was measured:
DnoP (PA4170) = target: T1, DnoP (PA4170) (Pseudomonas aeruginosa, UniProt A0A0H2ZG54); assay: DTNB assay of residual free thiols at […] nm; assay type: biochemical; settings: 40 µM TCEP-reduced substrate, 0.2 µM enzyme, 20 mM Tris-HCl pH 7.0, 100 mM NaCl, room temperature, 15 min
T1 construct: gene PA14_09950; one replicate with C-terminal mCherry fusion purified from A. fumigatus

GliT = target: T2, GliT (Aspergillus fumigatus, UniProt E9RAH5); assay type: biochemical; settings: 40 µM TCEP-reduced substrate, 0.2 µM enzyme, 20 mM Tris-HCl pH 7.0, 100 mM NaCl, room temperature, 15 min
T2 construct: one replicate with C-terminal mCherry fusion purified from A. fumigatus (A1160 background)
T2 sequence (E9RAH5 whole entry, the tested form may be a part): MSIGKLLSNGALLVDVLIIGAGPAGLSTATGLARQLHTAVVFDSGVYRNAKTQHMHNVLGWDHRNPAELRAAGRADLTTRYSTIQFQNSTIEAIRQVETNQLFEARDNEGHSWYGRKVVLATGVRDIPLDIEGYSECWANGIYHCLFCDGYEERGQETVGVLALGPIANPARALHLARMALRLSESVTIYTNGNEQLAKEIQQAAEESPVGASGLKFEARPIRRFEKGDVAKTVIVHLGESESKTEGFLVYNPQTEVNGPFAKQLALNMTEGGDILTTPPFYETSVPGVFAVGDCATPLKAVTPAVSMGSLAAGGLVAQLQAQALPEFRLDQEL

T1 sequence (A0A0H2ZG54 entry or part of it): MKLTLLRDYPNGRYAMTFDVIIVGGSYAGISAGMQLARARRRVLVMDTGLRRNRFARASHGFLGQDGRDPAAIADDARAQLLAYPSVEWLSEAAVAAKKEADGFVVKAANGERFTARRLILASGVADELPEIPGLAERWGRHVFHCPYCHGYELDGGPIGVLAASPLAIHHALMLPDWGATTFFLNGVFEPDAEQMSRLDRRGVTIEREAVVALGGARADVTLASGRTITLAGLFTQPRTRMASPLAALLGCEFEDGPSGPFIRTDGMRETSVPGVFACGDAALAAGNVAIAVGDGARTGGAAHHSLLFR

Question: With `CN1C(=O)C2(S)CC3=CC=CC(O)C3N2C(=O)C1(S)CO` (centres unmarked) [compound 1, reduced gliotoxin] as the compound, how does the “DTNB assay of residual free thiols at 412 nm” value (DnoP (PA4170)) read?
Answer: Recombinant PA4170 and GliT catalyzed disulfide oxidation of both gliotoxin and holomycin

Question: What about the “DTNB assay of residual free thiols at 412 nm” value (GliT) of the same compound?
Answer: Recombinant PA4170 and GliT catalyzed disulfide oxidation of both gliotoxin and holomycin
